Like-named read-outs stand apart in the source and are kept apart here.
Assays:
[1] = system: hypothermia induced by reserpine; assay: Anti-reserpine activity: antagonistic effect on hypothermia induced by reserpine; assay type: in vivo, male STD-ddY strain mice; settings: p.o.; for ED50: Mus musculus, po, 4 h, reserpine 5 mg/kg i.p.
Experimental: Pharmacological experiments have been done on the compound of the present invention, some known and novel analogous compounds and an antidepressant on the market, as mentioned below. In the experiments, ED50 was calculated by Litchfield-Wilcoxon method. This effect was examined according to the method of […]. 2, 725 (1963)], using male STD-ddY strain mice weighing 20-25 g. […] Rectal temperature of each mouse was measured 4 hours later with a thermister (Shibaura Electric, BMG III-130).

[2] = system: catalepsy induced by reserpine; assay: Anti-reserpine activity: antagonistic effect on catalepsy induced by reserpine; assay type: in vivo, male STD-ddY strain mice; settings: for ED50: Mus musculus, po, 1 h
Experimental: In the experiments, ED50 was calculated by Litchfield-Wilcoxon method. Male STD-ddY strain mice, weighing […], were used in groups of 10 mice each. […] The mice were tested for catalepsy 1 hour after the administration of test compounds. ED50 was calculated for each compound.

[3] = system: spontaneous locomotor activity; assay: Inhibitory effect on spontaneous locomotor activity; assay type: in vivo, male STD-ddY strain mice; settings: for ED50: Mus musculus, po, read-out: Spontan. locomotor ED50; for Inhibition of spontaneous locomotion (in words): p.o.
Experimental: (§1) Pharmacological experiments have been done on the compound of the present invention, some known and novel analogous compounds and an antidepressant on the market, as mentioned below. In the experiments, ED50 was calculated by Litchfield-Wilcoxon method.
Male mice of STD-ddY strain, weighing 20-25 g, were used in groups of 5 mice each. Each test compound was given orally to the mice in 5 different doses, and 2 hours later the spontaneous locomotor activity of each mouse was measured for 3 minutes by means of an Animex locomotor activity meter (made by Farad Electronics). ED50 was calculated for each compound. The ED50 means the dose of test compound in which the locomotor activity was reduced to 50% of that of control group receiving saline.

[4] = system: antidepressant activity; assay: Antidepressant activity, overall (Test 1); assay type: in vivo, male STD-ddY strain mice; male Wistar strain rats; settings: for Antidepressant activity (in words): overall conclusion
Experimental: This effect was examined according to the method of […]. 2, 725 (1963)], using male STD-ddY strain mice weighing 20-25 g. […] Rectal temperature of each mouse was measured 4 hours later with a thermister (Shibaura Electric, BMG III-130). […] Male STD-ddY strain mice, weighing […], were used in groups of 10 mice each. […] The mice were tested for catalepsy 1 hour after the administration of test compounds. ED50 was calculated for each compound. […] Male STD-ddY strain mice, weighing 20-25 g, were used in groups of 10 mice each. […] Two hours after the tetrabenazine injection, the degree of eyelid closure (ptosis) was assessed on the basis of macroscopic scoring (0: no closure of the eyelid, 1: 1/4 closure, 2: 2/4 closure, 3: 3/4 closure and 4: complete closure), essentially according to the method of P. A. J. Janssen [Arzneim. Forsch. 15, 104 (1965)]. ED50 was calcuated for each compound. […] Male Wistar strain rats, weighing 240-260 g, which had developed mouse-killing behavior after ablation of the olfactory bulb according to the method of Z. P. Horovitz [Int. J. Neuropharmacol. 5, 405 (1966)], were used in groups of 15 animals each. […] ED50 was calculated for each compound.

[5] = system: methamphetamine-induced locomotor activity; assay: Anti-methamphetamine effect (inhibitory effect on methamphetamine-induced locomotor activity); assay type: in vivo, male STD-ddY strain mice; settings: for ED50: Mus musculus, ip, read-out: Anti-methamphetamine ED50; for Antagonizing methamphetamine-induced locomotor activity (in words): i.p.
Experimental: as §1
Male STD-ddY strain mice, weighing 20-25 g, were used in groups of 10 mice each. Groups of mice were injected intraperitoneally with 4 mg/kg of methamphetamine, and 30 minutes later each test compound was injected intraperitoneally in 3 different doses. One hour after the injection of methamphetamine, locomotor activity of each mouse was measured for 10 minutes with an Animex locomotor activity meter.

[6] = system: ptosis induced by tetrabenazine; assay: Anti-tetrabenazine activity: antagonistic effect on ptosis induced by tetrabenazine; assay type: in vivo, male STD-ddY strain mice; settings: Mus musculus, po; tetrabenazine 70 mg/kg i.p.; Table 2
Experimental: Pharmacological experiments have been done on the compound of the present invention, some known and novel analogous compounds and an antidepressant on the market, as mentioned below. In the experiments, ED50 was calculated by Litchfield-Wilcoxon method. Male STD-ddY strain mice, weighing 20-25 g, were used in groups of 10 mice each. […] Two hours after the tetrabenazine injection, the degree of eyelid closure (ptosis) was assessed on the basis of macroscopic scoring (0: no closure of the eyelid, 1: 1/4 closure, 2: 2/4 closure, 3: 3/4 closure and 4: complete closure), essentially according to the method of P. A. J. Janssen [Arzneim. Forsch. 15, 104 (1965)]. ED50 was calcuated for each compound.

[7] = system: brain 3-methoxy-4-hydroxyphenylethylene glycol sulfate (MOPEG-SO4); assay: Effect on brain monoamine metabolites: MOPEG-SO4; assay type: in vivo, male Wistar strain rats; settings: 100 mg/kg p.o.; for Brain MOPEG-SO4, % of control: *P<0.01
Experimental: (§2) Each test compound was given orally to the rats in a dose of 100 mg/kg and, 1, 3 and 6 hours later the rats were sacrificed. […] The concentrations of the monoamine metabolites were calculated in terms of ng/g wet brain tissue and expressed as % of the concentrations of controls receiving saline.

[8] = system: mouse-killing behavior of olfactory bulb-ablated rats; assay: Suppressing effect on mouse-killing behavior in olfactory bulb-ablated rats; assay type: in vivo, male Wistar strain rats; settings: Rattus norvegicus, ip, 1 h, read-out: Suppressing effect on mouse-killing behavior of olfactory bulb-ablated rats, ED50
Experimental: as §1
Male Wistar strain rats, weighing 240-260 g, which had developed mouse-killing behavior after ablation of the olfactory bulb according to the method of Z. P. Horovitz [Int. J. Neuropharmacol. 5, 405 (1966)], were used in groups of 15 animals each. Each test compound was given intraperitoneally to the rats in 6 different doses, and 1 hours later the rats were each tested as to whether they killed a mouse or not. ED50 was calculated for each compound.

[9] = system: brain 5-hydroxyindoleacetic acid (5-HIAA); assay: Effect on brain monoamine metabolites: 5-HIAA; assay type: in vivo, male Wistar strain rats; settings: 100 mg/kg p.o., *P<0.01
Experimental: as §2

[10] = system: spontaneous and methamphetamine-induced locomotor activities; assay: Neuroleptics-like activity, overall (Test 2); assay type: in vivo, male STD-ddY strain mice; settings: overall conclusion
[11] = system: tremorine-induced tremor; assay: Anti-tremorine activity (antagonistic effect on tremorine-induced tremor); assay type: in vivo, male STD-ddY strain mice; settings: Mus musculus, po, read-out: Anti-tremorine activity ED50
Experimental: as §1
Male STD-ddY strain mice, weighing 20-25 g, were used in groups of 5 mice each. Each test compound was given orally to the mice in 5 different doses, and 2 hours later 20 mg/kg of tremorine was injected intraperitoneally. Half an hour after the injection of tremorine, each mouse was examined macroscopically for tremor severity, according to the rating scale with the scores 0, 1, 2, and 3 depending on the severity. ED50 was calculated for each compound. The ED50 means the dose of test compound in which the tremorine-induced tremor was inhibited by 50% in severity.

[12] = system: brain homovanillic acid (HVA); assay: Effect on brain monoamine metabolites: HVA; assay type: in vivo, male Wistar strain rats; settings: 100 mg/kg p.o.; for Brain HVA, % of control: *P<0.01
Experimental: as §2

[13] = Table 2, read-out: Anti-reserpine ED50, hypothermia
[14] = p.o., reserpine 5 mg/kg i.p., Table 2, read-out: Anti-reserpine ED50, catalepsy
[15] = Table 1, read-out: Anti-reserpine activity ED50, hypothermia
[16] = p.o., reserpine 5 mg/kg i.p., Table 1, read-out: Anti-reserpine activity ED50, catalepsy

| SMILES | ED50 [1, 13] [mg/kg] | ED50 [2, 14] [mg/kg] | ED50 ([3]; 2 hours after dosing) [mg/kg] | Inhibition of spontaneous locomotion (in words) [3] | Antidepressant activity (in words) [4] | ED50 ([5]; methamphetamine 4 mg/kg i.p.) [mg/kg] | Antagonizing methamphetamine-induced locomotor activity (in words) [5] | ED50 [6] [mg/kg] | ED50 [1, 15] [mg/kg] | Neuroleptics-like activity (in words) [10] | also measured |
| --- | --- | --- | --- | --- | --- | --- | --- | --- | --- | --- | --- |
| CCCN1CCN(c2cc(-c3ccccc3)c3ccccc3n2)CC1.Cl.Cl [Compound 4, 2-(4-n-Propyl-1-piperazinyl)-4-phenylquinoline dihydrochloride] | 13.6 | 4.4 | 62.2 | as potent as compound A | inferior to compound A | 13.2 | somewhat less potent | 8.2 |  |  |  |
| CN(C)CCCN1c2ccccc2Sc2ccc(Cl)cc21 [Compound 7, 2chloro-10-(3-dimethylaminopropyl)phenothiazine] |  |  |  |  |  |  |  |  |  |  | ED50 ([3]; 2 h): 7.4 mg/kg; ED50 [5]: 1 mg/kg |
| CN(C)CCCN1c2ccccc2CCc2ccccc21 [Compound 6, 5-(3-dimethylaminopropyl)-10,11-dihydro-5H-dibenz[b,f]azepine] | 21.5 |  |  | devoid of both activities |  |  | devoid of both activities | 4.9 | 21.5 | not seen | Brain MOPEG-SO4 concentration / noradrenaline turnover (in words) [7]: significant decrease in brain MOPEG-SO4 concentration; Brain MOPEG-SO4, % of control ([7]; 1 hour): 87 % of control; Brain MOPEG-SO4, % of control ([7]; 3 hours): 80 % of control; Brain MOPEG-SO4, % of control ([7]; 6 hours): 70 % of control; ED50 [8]: 5.5 mg/kg; Brain 5-HIAA, % of control ([9]; 1 hour): 88 % of control; Brain 5-HIAA, % of control ([9]; 3 hours): 84 % of control; Brain 5-HIAA, % of control ([9]; 6 hours): 73 % of control; ED50 ([2]; read-out: Anti-reserpine ED50, catalepsy): 38.3 mg/kg; ED50 ([2]; read-out: Anti-reserpine activity ED50, catalepsy): 38.3 mg/kg; ED50 ([3]; 2 h): > 200 mg/kg; ED50 [11]: 48.3 mg/kg; ED50 [5]: > 30 mg/kg; Brain HVA concentration / dopamine turnover (in words) [12]: devoid of such activity; Brain HVA, % of control ([12]; 1 hour): 110 % of control; Brain HVA, % of control ([12]; 3 hours): 98 % of control |
| Clc1ccc2nc(N3CCN(c4ccccc4)CC3)cc(-c3ccccc3)c2c1 [Compound 2, 6Chloro-2-(4-phenyl-1-piperazinyl)-4-phenylquinoline] |  |  | > 200 | devoid of both activities |  | > 30 | devoid of both activities |  | > 100 | not seen | ED50 [2, 16]: > 100 mg/kg; Anti-reserpine activity (in words) ([4]; hypothermia and catalepsy, p.o.): devoid of the anit-reserpine activity |
| CN1CCN(c2cc(-c3ccccc3)c3ccccc3n2)CC1 [Compound 3, 2-(4-Methyl-1-piperazinyl)-4-phenylquinoline] | 13.9 | 4.7 | 56.4 | as potent as compound A | much less potent than the latter | 12.9 | somewhat less potent | 10.4 |  | comparable to compound A |  |
| CN1CCN(c2cc(-c3ccccc3)c3cc(Cl)ccc3n2)CC1.Cl.Cl [Compound 1, 6-Chloro-2-(4-methyl-1-piperazinyl)-4-phenylquinoline dihydrochloride] |  |  | > 200 | devoid of both activities |  | > 30 | devoid of both activities |  | 30.8 | not seen | Activity in antagonizing reserpine hypothermia relative to compound A ([1]; versus compound A): 5 times less active; ED50 [2, 16]: 20 mg/kg; Activity in antagonizing reserpine catalepsy relative to compound A ([2]; versus compound A, p.o.): 13 times less active |
| OC(CCN1CCCCC1)(c1ccccc1)C1CC2C=CC1C2 (stereo not shown) [Compound 8, 5-norbornen-2-yl-phenyl-1-piperidinepropanol] |  |  |  |  |  |  |  |  |  |  | ED50 [11]: 11.4 mg/kg |
| CCCCN1CCN(c2cc(-c3ccccc3)c3ccccc3n2)CC1.O=C(O)/C=C\C(=O)O.O=C(O)/C=C\C(=O)O [Compound 5, 2-(4-n-Butyl-1-piperazinyl)-4-phenylquinoline dimaleate] | 13.7 | 6.3 | 50.6 | as potent as compound A | inferior to compound A | 16.4 | somewhat less potent | 29.9 |  |  |  |

Reference: patent publication US4237135A, “2-(4-Ethyl-1-piperazinyl)-4-phenylquinoline, process for preparation thereof, and composition thereof” (Dainippon Pharmaceutical Co., Ltd., priority 1978, dated 1980)
